From ChEMBL document CHEMBL5154873, “Selective degradation of PARP2 by PROTACs via recruiting DCAF16 for triple-negative breast cancer” (Eur J Med Chem, 2022)
Calls of active or inactive are those of the source. The rule behind the calls is not given here.

Assays:
MDA-MB-436 [1] = assay: Antiproliferative activity against human BRCA1 -/- MDA-MB-436 cells assessed as reduction in cell viability incubated for 5 to 10 days by MTT assay; type: functional, cell-based
CAPAN-1 = assay: Antiproliferative activity against human BRCA2 -/- CAPAN-1 cells assessed as reduction in cell viability incubated for 5 to 10 days by MTT assay; type: functional, cell-based
MDA-MB-231 [2] = assay: Antiproliferative activity against wild type human MDA-MB-231 cells assessed as reduction in cell viability incubated for 5 to 10 days by MTT assay; type: functional, cell-based
MDA-MB-468 = assay: Antiproliferative activity against human PTEN -/- MDA-MB-468 cells assessed as reduction in cell viability incubated for 5 to 10 days by MTT assay; type: functional, cell-based
[3] = target: DDB1- and CUL4-associated factor 16/Poly [ADP-ribose] polymerase 2 (Homo sapiens, UniProt Q9UGN5+Q9NXF7); assay: Protac activity at DCAF16 E3 ligase/PARP2 in human MDA-MB-231 cells assessed as induction of PARP2 degradation at 1 uM measured after 24 hrs by Western blot analysis; type: cell-based
Sequence of DDB1- and CUL4-associated factor 16/Poly [ADP-ribose] polymerase 2 (Q9NXF7 whole entry, looked up): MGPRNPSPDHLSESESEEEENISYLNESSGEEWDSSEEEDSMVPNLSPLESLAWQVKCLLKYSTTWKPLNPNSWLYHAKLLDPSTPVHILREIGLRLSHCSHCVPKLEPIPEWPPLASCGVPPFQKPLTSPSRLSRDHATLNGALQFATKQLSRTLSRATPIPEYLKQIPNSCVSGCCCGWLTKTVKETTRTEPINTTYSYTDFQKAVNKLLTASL
Sequence of DDB1- and CUL4-associated factor 16/Poly [ADP-ribose] polymerase 2 (Q9UGN5 whole entry, looked up): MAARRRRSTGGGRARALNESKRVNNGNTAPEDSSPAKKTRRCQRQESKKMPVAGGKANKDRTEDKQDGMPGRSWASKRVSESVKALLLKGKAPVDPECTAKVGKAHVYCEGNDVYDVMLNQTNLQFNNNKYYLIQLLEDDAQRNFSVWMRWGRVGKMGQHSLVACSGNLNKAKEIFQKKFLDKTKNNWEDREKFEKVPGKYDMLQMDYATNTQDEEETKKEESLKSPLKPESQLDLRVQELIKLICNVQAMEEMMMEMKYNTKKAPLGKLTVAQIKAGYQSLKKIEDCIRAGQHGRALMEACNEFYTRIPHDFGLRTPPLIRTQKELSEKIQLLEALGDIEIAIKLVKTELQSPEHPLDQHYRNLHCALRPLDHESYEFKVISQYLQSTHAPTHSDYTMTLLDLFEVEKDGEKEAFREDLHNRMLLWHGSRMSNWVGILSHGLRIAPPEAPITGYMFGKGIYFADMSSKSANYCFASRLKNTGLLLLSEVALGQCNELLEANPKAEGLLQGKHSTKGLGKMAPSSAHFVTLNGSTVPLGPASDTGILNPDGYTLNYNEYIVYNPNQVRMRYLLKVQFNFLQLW

MDA-MB-231 [4] = assay: In vivo antitumor activity against human MDA-MB-231 cells xenografted BALB/c mouse assessed as tumor growth inhibition at 100 mg/kg, IG measured after 21 days; type: functional; conditions: MDA-MB-231, po, 504 h, time 21 day, read-out: TGI
MDA-MB-231 [5] = assay: Induction of cell cycle arrest in human MDA-MB-231 cells assessed as accumulation at G2/M phase measured after 24 hrs by flow cytometry analysis; type: functional, cell-based; conditions: dose 0.156-1.25 µM, DDE = dose-dependent effect
MDA-MB-436 [6] = assay: Induction of cell cycle arrest in human (BRAC1-/-) MDA-MB-436 cells assessed as accumulation at G2/M phase measured after 48 hrs by flow cytometry analysis; type: functional, cell-based; conditions: dose 0.312-2.5 µM, DDE = dose-dependent effect

SMILES | IC50 (MDA-MB-436 [1]) | IC50 (MDA-MB-231 [2]) | IC50 (MDA-MB-468) | Activity [3] | IC50 (CAPAN-1) | inhibition in vivo at 100 mg/kg (MDA-MB-231 [4]) | Activity (MDA-MB-231 [5]) | Activity (MDA-MB-436 [6])
O=C(COc1ccc2c(c1)CCCN2C(=O)CCl)NCCCNC(=O)CN1CCN(C(=O)c2cc(Cc3n[nH]c(=O)c4ccccc34)ccc2F)CC1 | 2700 nM | > 20000 nM | > 20000 nM |  | 3370 nM |  |  | 
O=C(CCC(=O)N1CCN(C(=O)c2cc(Cc3n[nH]c(=O)c4ccccc34)ccc2F)CC1)NCCOCCOCCNC(=O)COc1ccc2c(c1)CCCN2C(=O)CCl | 1190 nM | 12900 nM | 9740 nM |  | 1280 nM |  |  | 
NC(=O)n1nc(Cc2ccc(F)c(C(=O)N3CCN(C(=O)CCC(=O)NCCCCNC(=O)COc4ccc5c(c4)CCCN5C(=O)CCl)CC3)c2)c2ccccc2c1=O | 820 nM | 9740 nM | 7450 nM | Active | 1960 nM |  |  | 
O=C(COc1ccc2c(c1)CCCN2C(=O)CCl)NCCOCCNC(=O)CN1CCN(C(=O)c2cc(Cc3n[nH]c(=O)c4ccccc34)ccc2F)CC1 | 2890 nM | > 20000 nM | > 20000 nM |  | 5280 nM |  |  | 
O=C(CCC(=O)N1CCN(C(=O)c2cc(Cc3n[nH]c(=O)c4ccccc34)ccc2F)CC1)NCCOCCNC(=O)COc1ccc2c(c1)CCCN2C(=O)CCl | 1480 nM | 8270 nM | 6010 nM |  | 2830 nM |  |  | 
O=C(CCC(=O)N1CCN(C(=O)c2cc(Cc3n[nH]c(=O)c4ccccc34)ccc2F)CC1)NCCCNC(=O)COc1ccc2c(c1)CCCN2C(=O)CCl | 1190 nM | 7190 nM | 5900 nM | Active | 1870 nM |  |  | 
O=C(CCC(=O)N1CCN(C(=O)c2cc(Cc3n[nH]c(=O)c4ccccc34)ccc2F)CC1)NCCOCCOCCOCCNC(=O)COc1ccc2c(c1)CCCN2C(=O)CCl | 1750 nM | 9710 nM | 6370 nM |  | 1600 nM |  |  | 
O=C(CCC(=O)N1CCN(C(=O)c2cc(Cc3n[nH]c(=O)c4ccccc34)ccc2F)CC1)NCCCCCCCNC(=O)COc1ccc2c(c1)CCCN2C(=O)CCl | 660 nM | 6210 nM | 5700 nM | Active | 1690 nM |  |  | 
O=C(COc1ccc2c(c1)CCCN2C(=O)CCl)NCCOCCOCCOCCOCCNC(=O)CN1CCN(C(=O)c2cc(Cc3n[nH]c(=O)c4ccccc34)ccc2F)CC1 | 5020 nM | > 20000 nM | > 20000 nM |  | 7040 nM |  |  | 
O=C(COc1ccc2c(c1)CCCN2C(=O)CCl)NCCOCCOCCOCCNC(=O)CN1CCN(C(=O)c2cc(Cc3n[nH]c(=O)c4ccccc34)ccc2F)CC1 | 1740 nM | > 20000 nM | > 20000 nM |  | 3490 nM |  |  | 
O=C(COc1ccc2c(c1)CCCN2C(=O)CCl)NCCNC(=O)CN1CCN(C(=O)c2cc(Cc3n[nH]c(=O)c4ccccc34)ccc2F)CC1 | 1690 nM | > 20000 nM | 13400 nM |  | 3300 nM |  |  | 
O=C(COc1ccc2c(c1)CCCN2C(=O)CCl)NCCOCCOCCNC(=O)CN1CCN(C(=O)c2cc(Cc3n[nH]c(=O)c4ccccc34)ccc2F)CC1 | 3460 nM | > 20000 nM | > 20000 nM |  | 7630 nM |  |  | 
O=C(CCC(=O)N1CCN(C(=O)c2cc(Cc3n[nH]c(=O)c4ccccc34)ccc2F)CC1)NCCNC(=O)COc1ccc2c(c1)CCCN2C(=O)CCl | 1480 nM | 8440 nM | 6180 nM | Active | 3160 nM |  |  | 
O=C(CCC(=O)N1CCN(C(=O)c2cc(Cc3n[nH]c(=O)c4ccccc34)ccc2F)CC1)NCCOCCOCCOCCOCCNC(=O)COc1ccc2c(c1)CCCN2C(=O)CCl | 780 nM | 11000 nM | 7430 nM |  | 1950 nM |  |  | 
O=C(COc1ccc2c(c1)CCCN2C(=O)CCl)NCCCCCCNC(=O)CN1CCN(C(=O)c2cc(Cc3n[nH]c(=O)c4ccccc34)ccc2F)CC1 | 1960 nM | 12300 nM | 11200 nM |  | 4360 nM |  |  | 
O=C(c1cc(Cc2n[nH]c(=O)c3ccccc23)ccc1F)N1CCN(C(=O)C2CC2)CC1 [OLAPARIB] |  |  |  |  |  | 57.8% | Dde | Dde
O=C(COc1ccc2c(c1)CCCN2C(=O)CCl)NCCCCNC(=O)CN1CCN(C(=O)c2cc(Cc3n[nH]c(=O)c4ccccc34)ccc2F)CC1 | 1840 nM | 11600 nM | 9100 nM |  | 2690 nM |  |  | 

More lines, main results first:

IC50 (MDA-MB-436 [1]) | IC50 (MDA-MB-231 [2]) | IC50 (MDA-MB-468) | Activity [3] | SMILES | IC50 (CAPAN-1) | inhibition in vivo at 100 mg/kg (MDA-MB-231 [4]) | Activity (MDA-MB-231 [5]) | Activity (MDA-MB-436 [6])
660 nM | > 20000 nM | > 20000 nM |  | O=C(COc1ccc2c(c1)CCCN2C(=O)CCl)NCCC(=O)N1CCN(C(=O)c2cc(Cc3n[nH]c(=O)c4ccccc34)ccc2F)CC1 | 900 nM |  |  | 
43 nM | 3100 nM | 2230 nM |  | CCC(=O)N1CCCc2cc(OCC(=O)NCCCCCCCCCCC(=O)N3CCN(C(=O)c4cc(Cc5n[nH]c(=O)c6ccccc56)ccc4F)CC3)ccc21 | 87 nM |  |  | 
25 nM | 810 nM | 720 nM | Active | O=C(COc1ccc2c(c1)CCCN2C(=O)CCl)NCCCCCCCCCCC(=O)N1CCN(C(=O)c2cc(Cc3n[nH]c(=O)c4ccccc34)ccc2F)CC1 | 68 nM |  |  | 
240 nM | 5310 nM | 4680 nM |  | O=C(COc1ccc2c(c1)CCCN2C(=O)CCl)NCCCCCC(=O)N1CCN(C(=O)c2cc(Cc3n[nH]c(=O)c4ccccc34)ccc2F)CC1 | 390 nM |  |  | 
630 nM | 6680 nM | 8170 nM |  | O=C(COc1ccc2c(c1)CCCN2C(=O)CCl)NCCOCCOCCOCCn1cc(CCCCC(=O)N2CCN(C(=O)c3cc(Cc4n[nH]c(=O)c5ccccc45)ccc3F)CC2)nn1 | 2230 nM |  |  | 
55 nM | 3510 nM | 5850 nM |  | O=C(COc1ccc2c(c1)CCCN2C(=O)CCl)NCC(=O)N1CCN(C(=O)c2cc(Cc3n[nH]c(=O)c4ccccc34)ccc2F)CC1 | 610 nM |  |  | 
490 nM | > 20000 nM | > 20000 nM |  | O=C(COc1ccc2c(c1)CCCN2C(=O)CCl)NCCCC(=O)N1CCN(C(=O)c2cc(Cc3n[nH]c(=O)c4ccccc34)ccc2F)CC1 | 840 nM |  |  | 
110 nM | 4230 nM | 2110 nM | Active | O=C(COc1ccc2c(c1)CCCN2C(=O)CCl)NCCCCCCCC(=O)N1CCN(C(=O)c2cc(Cc3n[nH]c(=O)c4ccccc34)ccc2F)CC1 | 120 nM |  |  | 
350 nM | 5590 nM | 3910 nM | Active | O=C(CCC(=O)N1CCN(C(=O)c2cc(Cc3n[nH]c(=O)c4ccccc34)ccc2F)CC1)NCCCCCCNC(=O)COc1ccc2c(c1)CCCN2C(=O)CCl | 990 nM |  |  | 
290 nM | 2420 nM | 1220 nM | Active | O=C(CCC(=O)N1CCN(C(=O)c2cc(Cc3n[nH]c(=O)c4ccccc34)ccc2F)CC1)NCCCCCNC(=O)COc1ccc2c(c1)CCCN2C(=O)CCl | 890 nM |  |  | 
77 nM | 2690 nM | 1700 nM | Active | O=C(COc1ccc2c(c1)CCCN2C(=O)CCl)NCCCCCCCCC(=O)N1CCN(C(=O)c2cc(Cc3n[nH]c(=O)c4ccccc34)ccc2F)CC1 | 150 nM |  |  | 
570 nM | > 20000 nM | 7240 nM |  | O=C(COc1ccc2c(c1)CCCN2C(=O)CCl)NCCCCC(=O)N1CCN(C(=O)c2cc(Cc3n[nH]c(=O)c4ccccc34)ccc2F)CC1 | 790 nM |  |  | 
